In publication PMC5611513, “Structure-Based Prototype Peptides Targeting the Pseudomonas aeruginosa Type VI Secretion System Effector as a Novel Antibacterial Strategy” (Frontiers in Cellular and Infection Microbiology, 2017):
Residue numbers refer to the chain shown, from its start.

Key:
E. coli BL21 (DE3) = assay: Cell-toxicity assay, spot growth on LB agar; format: cell-based, Escherichia coli; settings: 0.045 mM IPTG, 24 h; for decrease of growth inhibition on expression of mutated “L” peptide: E. coli BL21 (DE3) expressing TplE-TplEi and mutated peptide, compared with “L” peptide
Experimental: Cell-toxicity assay was carried as previously described with minor modification (Jiang et al., [2016]). […] A 2 μl bacterial dilution was spotted onto LB agar plate containing 0.045 mM IPTG. Images were taken after 24 h growth.
(A) Diagrams of TplE, TplE-TplEi and “L” peptide expressing constructs. Expression of vector sequence and “L” peptide mutant with the PelB signal peptide was used as a control. […] A 10-fold serial dilution of overnight culture was spotted on LB agar plates from left to right. The experiments were performed at least 3 times.

TplEi = target: T1, TplEi (Pseudomonas aeruginosa, UniProt Q9I3K3); assay: Isothermal titration calorimetry (ITC) of TplE peptides with wild type TplEi; format: binding; settings: for effect of the mutation on “L” peptide binding to TplEi: result in words, compared to WT peptide; for Kd: 25°C, 20 mM Tris-HCl pH 8.0, 100 mM NaCl, A peptides (WT) and its mutants, Figure 3D,E
T1 sequence (Q9I3K3 1-380): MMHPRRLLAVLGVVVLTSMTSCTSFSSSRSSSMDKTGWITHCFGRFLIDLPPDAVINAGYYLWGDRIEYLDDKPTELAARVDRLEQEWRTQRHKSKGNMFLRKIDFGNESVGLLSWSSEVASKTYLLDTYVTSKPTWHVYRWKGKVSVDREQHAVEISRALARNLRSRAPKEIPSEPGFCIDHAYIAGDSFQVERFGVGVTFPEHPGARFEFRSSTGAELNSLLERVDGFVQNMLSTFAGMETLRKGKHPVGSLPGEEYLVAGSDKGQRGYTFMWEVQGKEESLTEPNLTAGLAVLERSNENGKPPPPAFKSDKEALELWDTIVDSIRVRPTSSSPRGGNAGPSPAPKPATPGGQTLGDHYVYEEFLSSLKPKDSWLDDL
Experimental: (§1) Isothermal titration calorimetry (ITC) assay was performed with a MicroCalTM iTC200 calorimeter (MicroCal, USA) at 25°C; both the protein and peptides were dissolved with the same buffer (20 mM Tris-HCl, pH = 8.0, 100 mM NaCl). The concentration of TplEi was between 0.03 and 0.04 mM. The concentrations of wild type peptides and mutants were between 1 and 2 mM. Titration was scheduled with 18 consecutive injections of 2 μl of peptide with a 120 s interval between injections, using a stirring rate of 600 rpm. Data acquisition and analysis were performed using MicroCal Origin software (version 7.0).

TplEi S215A mutant = target: T2, TplEi S215A mutant (Pseudomonas aeruginosa, UniProt Q9I3K3, S215A); assay: ITC of the “L” peptide with TplEi mutant S215A; format: binding
T2 sequence (Q9I3K3 1-380 S215A): T1 sequence (Q9I3K3 1-380) with S215A
Experimental: as §1
(§2) To further elucidate the mechanism underlying the “L” peptide binding, we mutated several key residues of TplEi interacting with the “L” peptide, and measured the binding affinity of the “L” peptide to these TplEi mutants using ITC. The side chain of K100 of the “L” peptide forms four hydrogen bonds with TplEi, among which only one involves side chain interaction with S215 of TplEi, whereas the other three involve backbone atoms. […] Similarly, we prepared TplEi mutants E219A and R266A, respectively. E219 forms a hydrogen bond with backbone NH group of K100 of the “L” peptide, and R266 forms two hydrogen bonds with the carbonyl group of W96 of the peptide (Figure 3A).

TplEi E219A mutant = target: T3, TplEi E219A mutant (Pseudomonas aeruginosa, UniProt Q9I3K3, E219A); assay: ITC of the “L” peptide with TplEi mutant E219A; format: binding
T3 sequence (Q9I3K3 1-380 E219A): T1 sequence (Q9I3K3 1-380) with E219A
Experimental: as §1, §2

TplEi R266A mutant [1] = target: T4, TplEi R266A mutant (Pseudomonas aeruginosa, UniProt Q9I3K3); assay: ITC of the “L” peptide with TplEi mutant R266A; format: binding; settings: 25°C, TplEi R266A, Figure S3
T4 sequence (Q9I3K3 1-380 R226A): T1 sequence (Q9I3K3 1-380) with R226A
Experimental: as §1, §2

TplEi R266A mutant [2] = target: T5, TplEi R266A mutant (Pseudomonas aeruginosa, UniProt Q9I3K3, R226A, form not given); assay: ITC of the “L” peptide with TplEi mutant R266A; format: binding; settings: TplEi R266A vs wild type TplEi
T5 sequence (Q9I3K3 1-380 R226A): T1 sequence (Q9I3K3 1-380) with R226A
Experimental: as §1, §2

| Substance | effect of the mutation on “L” peptide binding to TplEi (TplEi) | Kd (TplEi) | other results |
| --- | --- | --- | --- |
| DDLFASIGALWTWAWRGPEARQELLKAEQVEVDD [K100E] | completely abolished | – | decrease of growth inhibition on expression of mutated “L” peptide (E. coli BL21 (DE3)): strong |
| Ac-DDLFASIGAAWTWAWRGPKARQELLKAEQVEVDD-NH2 [L91A] | – | 3700 nM | – |
| Ac-DDLFASIGALATWAWRGPKARQELLKAEQVEVDD-NH2 [W92A] | – | 50000 nM | decrease of growth inhibition on expression of mutated “L” peptide (E. coli BL21 (DE3)): moderate decreased growth inhibition |
| Ac-DDLFASIGALWTWAWRAPKARQELLKAEQVEVDD-NH2 [G98A] | – | 1310 nM | – |
| Ac-DDLFASAGALWTWAWRGPKARQELLKAEQVEVDD-NH2 [I88A] | – | 4800 nM | – |
| Ac-DDLFASIGALWTWAWRGAKARQELLKAEQVEVDD-NH2 [P99A] | increased binding affinity | 57 nM | – |
| Ac-DDLFASIGALWTWAARGPKARQELLKAEQVEVDD-NH2 [W96A] | increased binding affinity | 31 nM | – |
| Ac-DDLFASIGALWTWAWRGPKARQELLKAEQVEVDD-NH2 [“L” peptide] | – | – | Kd (TplEi S215A mutant; 25°C, TplEi S215A, Figure S3): 7.8 µM; reduced binding affinity comparing to wild type TplEi (TplEi S215A mutant; TplEi S215A vs wild type TplEi): ~62 folds; Kd (TplEi E219A mutant; 25°C, TplEi E219A, Figure S3): 35.5 µM; decreased binding affinity (TplEi E219A mutant; TplEi E219A vs wild type TplEi): 284 folds; growth inhibition on expression of the peptide (E. coli BL21 (DE3); E. coli BL21 (DE3) expressing periplasmic-targeted TplE-TplEi and peptide, 10-fold serial dilutions, at least 3 experiments): significant TplE-dependent growth inhibition; Kd (TplEi R266A mutant [1]): 46.9 µM; decreased binding affinity (TplEi R266A mutant [2]): 375 folds |
